Assay results taken from ChEMBL document CHEMBL5365431 (J Med Chem, 2023).
Calls of active or inactive are those of the source. The calls are words filed in the database; no cut-off is given here.

Tests used:
[1] = Clearance in Sprague-Dawley rat at 5 mg/kg, iv and measured upto 24 hrs; assay type: ADME, organism-based; conditions: in vivo
[2] = Antitumor activity against human Olaparib-resistant MDA-MB-436 cells xenografted in BALB/c mouse assessed as tumor growth inhibition by measuring T/C ratio at 25 mg/kg,po QD for 27 days relative to control; assay type: functional; set-up: scale not given: the % may be the effect or the level left; conditions: time 27 day
[3] = target: Poly [ADP-ribose] polymerase 1 (Homo sapiens, UniProt P09874); assay: Inhibition of PARP1 (unknown origin) using histone as substrate by ELISA
[4] = Antiproliferative activity against human Olaparib-resistant U-251 cells assessed as cell proliferation inhibition incubated for 7 days by SRB assay; assay type: functional, cell-based
[5] = system: CAPAN-1; assay: Antiproliferative activity against human CAPAN-1 cells assessed as cell proliferation inhibition incubated for 7 days by SRB assay; assay type: functional, cell-based
[6] = Antiproliferative activity against human Olaparib-resistant CAPAN-1 cells assessed as cell proliferation inhibition incubated for 7 days by SRB assay; assay type: functional, cell-based
[7] = system: CAPAN-1; assay: Antiproliferative activity against human Talazoparib-resistant CAPAN-1 cells assessed as cell proliferation inhibition incubated for 7 days by SRB assay; assay type: functional, cell-based
[8] = Stabilization of human His-tagged PARP1-DNA complex assessed as increase in fluorescence signal incubated for 60 mins using NAD+ as substrate by DSB fluorescence polarization assay
[9] = target: Poly [ADP-ribose] polymerase 2 (Homo sapiens, UniProt Q9UGN5); assay: Inhibition of PARP2 (unknown origin) using histone as substrate by ELISA
[10] = target: Protein mono-ADP-ribosyltransferase PARP3 (Homo sapiens, UniProt Q9Y6F1); assay: Inhibition of PARP3 (unknown origin) using biotinylated NAD+ as substrate by luminescence assay
[11] = target: Protein mono-ADP-ribosyltransferase PARP4 (Homo sapiens, UniProt Q9UKK3); assay: Inhibition of PARP4 (unknown origin) using biotinylated NAD+ as substrate by luminescence assay
[12] = target: Poly [ADP-ribose] polymerase tankyrase-2 (Homo sapiens, UniProt Q9H2K2); assay: Inhibition of PARP5B (unknown origin) using biotinylated NAD+ as substrate by luminescence assay
Sequence of Poly [ADP-ribose] polymerase tankyrase-2 (Q9H2K2 whole entry): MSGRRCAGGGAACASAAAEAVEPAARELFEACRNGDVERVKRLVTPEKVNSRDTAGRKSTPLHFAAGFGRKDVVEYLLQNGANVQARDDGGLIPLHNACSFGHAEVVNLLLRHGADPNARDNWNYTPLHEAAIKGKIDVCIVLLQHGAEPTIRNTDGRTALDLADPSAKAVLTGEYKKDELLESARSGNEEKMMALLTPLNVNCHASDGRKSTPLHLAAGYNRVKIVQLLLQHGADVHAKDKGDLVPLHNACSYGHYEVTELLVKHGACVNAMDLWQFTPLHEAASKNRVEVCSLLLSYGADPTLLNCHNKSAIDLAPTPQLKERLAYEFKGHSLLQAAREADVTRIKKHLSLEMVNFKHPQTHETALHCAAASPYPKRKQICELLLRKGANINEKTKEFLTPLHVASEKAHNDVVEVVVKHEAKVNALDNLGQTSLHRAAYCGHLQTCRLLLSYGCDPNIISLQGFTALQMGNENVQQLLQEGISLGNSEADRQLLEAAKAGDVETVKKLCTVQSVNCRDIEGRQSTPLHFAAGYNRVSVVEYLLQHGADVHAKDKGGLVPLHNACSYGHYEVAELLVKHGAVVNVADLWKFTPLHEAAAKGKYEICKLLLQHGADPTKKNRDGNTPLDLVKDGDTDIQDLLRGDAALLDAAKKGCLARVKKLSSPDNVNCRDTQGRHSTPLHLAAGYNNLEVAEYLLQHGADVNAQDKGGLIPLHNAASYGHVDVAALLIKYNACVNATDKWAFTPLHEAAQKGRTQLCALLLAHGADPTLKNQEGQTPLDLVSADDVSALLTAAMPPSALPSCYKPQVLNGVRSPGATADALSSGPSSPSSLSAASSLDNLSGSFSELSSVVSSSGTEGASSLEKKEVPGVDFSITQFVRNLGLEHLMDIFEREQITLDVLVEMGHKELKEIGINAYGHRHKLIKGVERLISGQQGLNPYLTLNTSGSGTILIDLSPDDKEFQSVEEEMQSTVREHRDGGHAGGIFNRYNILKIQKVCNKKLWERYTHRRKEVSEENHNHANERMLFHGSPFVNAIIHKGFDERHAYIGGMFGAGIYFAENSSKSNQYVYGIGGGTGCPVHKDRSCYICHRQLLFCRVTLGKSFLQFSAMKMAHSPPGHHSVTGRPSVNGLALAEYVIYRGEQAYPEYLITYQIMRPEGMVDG

[13] = target: Protein mono-ADP-ribosyltransferase PARP6 (Homo sapiens, UniProt Q2NL67); assay: Inhibition of PARP6 (unknown origin) using biotinylated NAD+ as substrate by luminescence assay
[14] = target: Protein mono-ADP-ribosyltransferase TIPARP (Homo sapiens, UniProt Q7Z3E1); assay: Inhibition of PARP7 (unknown origin) using biotinylated NAD+ as substrate by luminescence assay
[15] = target: Protein mono-ADP-ribosyltransferase PARP10 (Homo sapiens, UniProt Q53GL7); assay: Inhibition of PARP10 (unknown origin) using biotinylated NAD+ as substrate by luminescence assay
Sequence of Protein mono-ADP-ribosyltransferase PARP10 (Q53GL7 whole entry): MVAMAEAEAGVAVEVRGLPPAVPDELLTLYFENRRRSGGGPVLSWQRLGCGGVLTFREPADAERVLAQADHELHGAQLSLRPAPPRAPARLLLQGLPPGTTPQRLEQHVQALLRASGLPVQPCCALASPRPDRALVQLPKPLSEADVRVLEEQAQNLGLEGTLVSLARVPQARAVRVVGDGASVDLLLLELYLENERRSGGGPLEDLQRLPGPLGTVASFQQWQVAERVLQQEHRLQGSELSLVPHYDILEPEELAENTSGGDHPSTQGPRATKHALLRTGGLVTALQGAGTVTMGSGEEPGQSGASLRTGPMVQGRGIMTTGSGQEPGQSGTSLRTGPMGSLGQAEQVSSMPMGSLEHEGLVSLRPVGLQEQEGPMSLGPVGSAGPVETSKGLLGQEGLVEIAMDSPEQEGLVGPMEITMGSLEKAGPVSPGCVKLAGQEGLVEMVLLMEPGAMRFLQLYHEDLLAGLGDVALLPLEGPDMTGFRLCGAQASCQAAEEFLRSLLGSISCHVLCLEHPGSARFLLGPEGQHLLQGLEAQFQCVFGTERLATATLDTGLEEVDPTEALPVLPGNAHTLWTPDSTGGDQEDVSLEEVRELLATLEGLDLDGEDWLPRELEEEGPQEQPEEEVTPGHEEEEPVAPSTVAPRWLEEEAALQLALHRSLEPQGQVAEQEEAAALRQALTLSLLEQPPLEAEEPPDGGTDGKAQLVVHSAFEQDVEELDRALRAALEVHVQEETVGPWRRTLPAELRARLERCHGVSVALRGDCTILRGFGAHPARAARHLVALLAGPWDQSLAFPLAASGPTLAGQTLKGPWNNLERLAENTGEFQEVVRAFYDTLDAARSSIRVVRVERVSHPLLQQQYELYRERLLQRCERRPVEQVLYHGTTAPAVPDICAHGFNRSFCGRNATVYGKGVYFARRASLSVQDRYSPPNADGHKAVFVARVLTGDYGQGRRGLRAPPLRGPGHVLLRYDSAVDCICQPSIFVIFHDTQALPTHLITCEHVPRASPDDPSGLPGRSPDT

[16] = target: Protein mono-ADP-ribosyltransferase PARP11 (Homo sapiens, UniProt Q9NR21); assay: Inhibition of PARP11 (unknown origin) using biotinylated NAD+ as substrate by luminescence assay
Sequence of Protein mono-ADP-ribosyltransferase PARP11 (Q9NR21 whole entry): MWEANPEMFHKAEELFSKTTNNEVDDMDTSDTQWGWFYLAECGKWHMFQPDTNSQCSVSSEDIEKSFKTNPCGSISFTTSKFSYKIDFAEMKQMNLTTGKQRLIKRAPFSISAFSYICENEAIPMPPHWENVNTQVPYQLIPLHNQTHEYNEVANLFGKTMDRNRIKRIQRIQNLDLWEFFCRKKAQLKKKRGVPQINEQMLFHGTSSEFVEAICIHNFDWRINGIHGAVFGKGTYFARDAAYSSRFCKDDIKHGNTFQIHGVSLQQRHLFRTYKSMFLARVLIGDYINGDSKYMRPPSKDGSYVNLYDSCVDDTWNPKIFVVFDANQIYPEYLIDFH

[17] = target: Protein mono-ADP-ribosyltransferase PARP12 (Homo sapiens, UniProt Q9H0J9); assay: Inhibition of PARP12 (unknown origin) using biotinylated NAD+ as substrate by luminescence assay
[18] = target: Protein mono-ADP-ribosyltransferase PARP14 (Homo sapiens, UniProt Q460N5); assay: Inhibition of PARP14 (unknown origin) using biotinylated NAD+ as substrate by luminescence assay
Sequence of Protein mono-ADP-ribosyltransferase PARP14 (Q460N5 whole entry): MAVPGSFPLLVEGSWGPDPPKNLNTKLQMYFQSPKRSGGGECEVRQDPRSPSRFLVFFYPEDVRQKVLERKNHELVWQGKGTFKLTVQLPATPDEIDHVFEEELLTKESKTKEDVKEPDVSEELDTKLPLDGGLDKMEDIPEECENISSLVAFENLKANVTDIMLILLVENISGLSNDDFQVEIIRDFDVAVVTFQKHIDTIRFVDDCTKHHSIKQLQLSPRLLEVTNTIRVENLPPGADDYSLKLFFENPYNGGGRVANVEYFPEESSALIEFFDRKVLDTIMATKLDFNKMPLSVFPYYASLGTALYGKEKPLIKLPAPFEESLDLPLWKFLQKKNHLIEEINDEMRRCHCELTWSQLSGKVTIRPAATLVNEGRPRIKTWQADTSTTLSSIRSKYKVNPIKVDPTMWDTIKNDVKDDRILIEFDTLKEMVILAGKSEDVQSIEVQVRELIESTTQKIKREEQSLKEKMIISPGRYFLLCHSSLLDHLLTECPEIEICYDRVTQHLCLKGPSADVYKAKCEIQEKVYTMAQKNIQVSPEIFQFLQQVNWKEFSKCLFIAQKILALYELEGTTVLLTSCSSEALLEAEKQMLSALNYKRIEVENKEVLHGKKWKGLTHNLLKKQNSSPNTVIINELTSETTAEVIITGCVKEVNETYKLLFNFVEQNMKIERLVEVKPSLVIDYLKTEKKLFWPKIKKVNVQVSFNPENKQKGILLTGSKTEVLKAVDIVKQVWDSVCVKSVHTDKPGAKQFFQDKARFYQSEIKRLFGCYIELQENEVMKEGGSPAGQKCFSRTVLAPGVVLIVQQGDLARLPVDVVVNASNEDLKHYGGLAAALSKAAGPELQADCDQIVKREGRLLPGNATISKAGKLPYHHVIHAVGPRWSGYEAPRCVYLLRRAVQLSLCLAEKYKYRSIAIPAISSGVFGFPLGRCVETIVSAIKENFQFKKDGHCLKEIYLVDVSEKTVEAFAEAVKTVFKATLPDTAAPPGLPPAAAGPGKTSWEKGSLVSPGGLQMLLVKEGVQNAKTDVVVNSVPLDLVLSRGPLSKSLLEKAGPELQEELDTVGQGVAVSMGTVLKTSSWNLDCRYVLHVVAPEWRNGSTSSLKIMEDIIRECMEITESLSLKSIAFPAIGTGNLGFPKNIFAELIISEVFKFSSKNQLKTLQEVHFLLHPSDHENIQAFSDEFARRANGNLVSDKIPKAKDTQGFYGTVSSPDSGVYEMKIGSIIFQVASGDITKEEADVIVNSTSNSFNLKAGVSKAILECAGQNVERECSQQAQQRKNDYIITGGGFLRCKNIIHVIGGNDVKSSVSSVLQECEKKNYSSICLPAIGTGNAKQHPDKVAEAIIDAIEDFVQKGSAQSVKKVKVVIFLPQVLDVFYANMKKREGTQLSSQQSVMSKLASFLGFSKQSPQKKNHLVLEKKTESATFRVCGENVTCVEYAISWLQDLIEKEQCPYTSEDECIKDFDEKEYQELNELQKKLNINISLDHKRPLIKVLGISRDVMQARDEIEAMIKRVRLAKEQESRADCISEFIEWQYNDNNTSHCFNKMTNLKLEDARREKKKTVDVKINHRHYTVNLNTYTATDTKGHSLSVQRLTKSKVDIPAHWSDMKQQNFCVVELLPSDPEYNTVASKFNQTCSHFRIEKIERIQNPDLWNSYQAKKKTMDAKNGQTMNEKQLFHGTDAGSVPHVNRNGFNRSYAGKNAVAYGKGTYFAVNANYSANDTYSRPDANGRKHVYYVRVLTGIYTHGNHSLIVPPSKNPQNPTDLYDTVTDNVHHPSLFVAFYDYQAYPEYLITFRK

[19] = target: Protein mono-ADP-ribosyltransferase PARP15 (Homo sapiens, UniProt Q460N3); assay: Inhibition of PARP15 (unknown origin) using biotinylated NAD+ as substrate by luminescence assay
Sequence of Protein mono-ADP-ribosyltransferase PARP15 (Q460N3 whole entry): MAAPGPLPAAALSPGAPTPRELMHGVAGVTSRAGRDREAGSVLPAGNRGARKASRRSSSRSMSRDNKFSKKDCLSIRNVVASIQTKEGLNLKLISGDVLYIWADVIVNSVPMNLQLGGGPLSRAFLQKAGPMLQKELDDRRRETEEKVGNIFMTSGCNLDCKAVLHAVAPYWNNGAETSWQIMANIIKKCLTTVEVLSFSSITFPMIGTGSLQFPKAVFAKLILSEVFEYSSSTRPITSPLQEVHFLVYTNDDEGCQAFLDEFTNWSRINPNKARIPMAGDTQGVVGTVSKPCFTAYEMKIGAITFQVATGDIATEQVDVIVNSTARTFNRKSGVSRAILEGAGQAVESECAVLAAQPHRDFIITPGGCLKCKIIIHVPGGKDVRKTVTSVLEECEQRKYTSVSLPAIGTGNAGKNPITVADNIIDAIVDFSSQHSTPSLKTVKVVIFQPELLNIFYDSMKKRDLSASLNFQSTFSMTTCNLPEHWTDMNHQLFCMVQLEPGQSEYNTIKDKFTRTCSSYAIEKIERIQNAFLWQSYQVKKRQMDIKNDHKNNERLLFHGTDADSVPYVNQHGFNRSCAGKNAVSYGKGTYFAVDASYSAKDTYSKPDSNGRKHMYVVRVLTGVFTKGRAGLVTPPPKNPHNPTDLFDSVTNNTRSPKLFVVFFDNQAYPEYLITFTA

[20] = system: HCC1937; assay: Antiproliferative activity against HR-deficient human HCC1937 cells harboring BRCA1 mutant assessed as cell proliferation inhibition incubated for 7 days by SRB assay; assay type: functional, cell-based
[21] = system: HCT-15; assay: Antiproliferative activity against HR-deficient human HCT-15 cells harboring BRCA2 mutant assessed as cell proliferation inhibition incubated for 7 days by SRB assay; assay type: functional, cell-based
[22] = system: MDA-MB-436; assay: Antiproliferative activity against HR-deficient human MDA-MB-436 cells harboring BRCA1 mutant assessed as cell proliferation inhibition incubated for 7 days by SRB assay; assay type: functional, cell-based
[23] = Antiproliferative activity against HR-deficient human UWB1289 cells harboring BRCA1 mutant assessed as cell proliferation inhibition incubated for 7 days by SRB assay; assay type: functional, cell-based
[24] = Antiproliferative activity against human UWB1289 cells harboring wild type BRCA1 assessed as cell proliferation inhibition incubated for 7 days by SRB assay; assay type: functional, cell-based
[25] = Antiproliferative activity against Chinese hamster V-C8 cells harboring BRCA2 mutant assessed as cell proliferation inhibition incubated for 7 days by SRB assay; assay type: functional, cell-based; conditions: Cricetulus griseus
[26] = system: V79; assay: Antiproliferative activity against Chinese hamster V79 cells harboring wild type BRCA2 assessed as cell proliferation inhibition incubated for 7 days by SRB assay; assay type: functional, cell-based; conditions: Cricetulus griseus
[27] = system: IMR-90; assay: Antiproliferative activity against human IMR-90 cells assessed as cell proliferation inhibition incubated for 7 days by SRB assay; assay type: functional, cell-based
[28] = system: WI-38; assay: Antiproliferative activity against human WI-38 cells assessed as cell proliferation inhibition incubated for 7 days by SRB assay; assay type: functional, cell-based
[29] = Selectivity index, ratio of IC50 for antiproliferative activity against human UWB1289 cells harboring wild type BRCA1 to IC50 for antiproliferative activity against HR-deficient human UWB1289 cells harboring BRCA1 mutant; assay type: functional
[30] = Selectivity index, ratio of IC50 for antiproliferative activity against Chinese hamster V79 cells harboring wild type BRCA2 to IC50 for antiproliferative activity against Chinese hamster V-C8 cells harboring BRCA2 mutant; assay type: functional, Cricetulus griseus
[31] = Antiproliferative activity against human Olaparib-resistant MDA-MB-436 cells assessed as cell proliferation inhibition incubated for 7 days by CCK-8 assay; assay type: functional, cell-based
[32] = Antiproliferative activity against human Talazoparib-resistant MDA-MB-436 cells assessed as cell proliferation inhibition incubated for 7 days by CCK-8 assay; assay type: functional, cell-based, Talazoparib-resistant MDA-MB-436 cell
[33] = system: U-251; assay: Antiproliferative activity against human Talazoparib-resistant U-251 cells assessed as cell proliferation inhibition incubated for 7 days by SRB assay; assay type: functional, cell-based
[34] = Selectivity index, ratio of IC50 for antiproliferative activity against human PARP1 knockout Talazoparib-resistant CAPAN-1 cells to IC50 for antiproliferative activity against human Talazoparib-resistant CAPAN-1 cells; assay type: functional
[35] = system: U2OS; assay: Inhibition of homologous recombination repair activity in human U2OS cells expressing direct repeat-GFP reporter gene transfected with pCBA-ISceI plasmid at 1 uM incubated for 48 hrs by flow cytometry; assay type: functional
[36] = system: U2OS; assay: Inhibition of homologous recombination repair activity in human PARP1 knockout U2OS cells expressing direct repeat-GFP reporter gene transfected with pCBA-ISceI plasmid at 1 uM incubated for 48 hrs by flow cytometry; assay type: functional
[37] = Half life in Sprague-Dawley rat at 5 mg/kg, iv and measured upto 24 hrs; assay type: ADME, organism-based; conditions: in vivo
[38] = Antitumor activity against human Olaparib-resistant MDA-MB-436 cells xenografted in BALB/c mouse assessed as tumor growth inhibition by measuring T/C ratio at 12.5 mg/kg,po QD for 27 days relative to control; assay type: functional; set-up: scale not given: the % may be the effect or the level left; conditions: time 27 day
[39] = Toxicity in BALB/c mouse xenografted with human Olaparib-resistant MDA-MB-436 cells assessed as body weight at 12.5 to 25 mg/kg,po QD for 27 days; assay type: organism-based; conditions: in vivo, 648 h, dose 12.5-25 mg/kg, time 27 day
[40] = system: CAPAN-1; assay: Antitumor activity against human Talazoparib-resistant CAPAN-1 cells xenografted in BALB/c mouse assessed as tumor growth inhibition by measuring T/C ratio at 12.5 mg/kg,po QD for 21 days relative to control; assay type: functional; set-up: scale not given: the % may be the effect or the level left; conditions: time 21 day
[41] = system: CAPAN-1; assay: Antitumor activity against human Talazoparib-resistant CAPAN-1 cells xenografted in BALB/c mouse assessed as tumor growth inhibition by measuring T/C ratio at 25 mg/kg,po QD for 21 days relative to control; assay type: functional; set-up: scale not given: the % may be the effect or the level left; conditions: time 21 day
[42] = target: Poly [ADP-ribose] polymerase tankyrase-1 (Homo sapiens, UniProt O95271)
[43] = system: CAPAN-1; conditions: Homo sapiens, dose 10.0 nM, time 4.5 hrs
[44] = system: CAPAN-1; conditions: Homo sapiens, dose 10.0 nM, time 4.5 hrs; remark: listed apart in the source
[45] = species: Mus musculus; conditions: BALB/c, dose 12.5-25 mg/kg, route po, time 21.0 day
[46] = species: Mus musculus; conditions: BALB/c, dose 12.5-25 mg/kg, route po, time 21.0 day; remark: listed apart in the source
[47] = species: Mus musculus; conditions: BALB/c, dose 12.5-25 mg/kg, route po, time 21.0 day; remark: listed apart in the source

In the case of `O=C(c1cc(Cc2n[nH]c(=O)c3ccccc23)ccc1F)N1CCn2c(nnc2-c2ccc(Br)o2)C1`, the clearance [1] is reported as 24.5 mL/min/kg, the Activity [2] is reported as 15.29% and the IC50 [3] is reported as < 0.001 nM. The IC50 [4] was 1.97 nM, the IC50 [5] was 0.1 nM and the IC50 [6] was 0.89 nM. It also gave an IC50 [7] of 1.13 nM, an EC50 [8] of 5.55 nM and an IC50 [9] of 0.001 nM. It also gave an IC50 [10] of 1.1 nM, an IC50 [11] of 1 nM and an IC50 [12] of 12.4 nM. For the same compound, the IC50 [13] was 9.5 nM, the IC50 [14] was 7.3 nM and the IC50 [15] was 10.8 nM. It also gave an IC50 [16] of 2170 nM, an IC50 [17] of 14.1 nM and an IC50 [18] of 35900 nM. For the same compound, the IC50 [19] was 51600 nM, the IC50 [20] was 4.54 nM and the IC50 [21] was 44.2 nM. For the same compound, the IC50 [22] was 0.52 nM, the IC50 [23] was 0.02 nM and the IC50 [24] was 0.34 nM. It also gave an IC50 [25] of 1.19 nM, an IC50 [26] of 29.3 nM and an IC50 [27] of 1240 nM. The IC50 [28] was 530 nM, the “Ratio IC50” value [29] was 17 and the “Ratio IC50” value [30] was 25. For the same compound, the IC50 [31] was 1.97 nM, the IC50 [32] was 1.97 nM and the IC50 [33] was 1.97 nM. For the same compound, the “Ratio IC50” value [34] was 19, the “inhibition (INH)” value [35] was 95% and the “inhibition (INH)” value [36] was 50%. The half-life [37] was 3.25 h, the Activity [38] was 36.74% and the Activity [39] was “Non-Toxic”. For the same compound, the Activity [40] was 48.92%, the Activity [41] was 13.87% and the IC50 [42] was 3.8 nM. The inhibition [43] was “Active”, the inhibition [44] was “Active” and the inhibition [45] was “Active”. The inhibition [46] was “Active” and the inhibition [47] was “Active”.
